Assays:
RAO horses [1] = assay: 1st ciclesonide study: moldy hay challenge, lung function variables and breathing effort score; type: in vivo; conditions: after 14 days
RAO horses [2] = assay: 1st ciclesonide study: moldy hay challenge, serum cortisol; type: in vivo; conditions: any ciclesonide group (450/900/1800 μg/horse twice daily); any measured time point
RAO horses [3] = assay: 2nd ciclesonide study: moldy hay challenge, lung function variables and weighted clinical score; type: in vivo
Description: (§1) The commercially available […]® is used in the study.

RAO horses [4] = assay: 2nd ciclesonide study: moldy hay challenge, serum cortisol; type: in vivo; conditions: any ciclesonide group (1687.5/2700 A/2700 B μg twice daily); any measured time point
Description: as §1

RAO horses [5] = assay: Segmented neutrophil and lymphocyte counts in the 1st and 2nd ciclesonide studies; type: in vivo; conditions: for Lymphocytes / Segmented neutrophils: mean, n=8
Experimental: as §1
The segmented neutrophil counts and the lymphocyte counts are determined in the studies above: ciclesonide treatment versus dexamethasone treatment.
Concentration of segmented neutrophils and lymphocytes on day (D): D0, D14 and D21 in the treatment groups of dexamethasone and different doses of ciclesonide (n=8) (mean (SEM)

RAO horses [6] = assay: 3rd ciclesonide study: moldy hay challenge, lung function variables; type: in vivo; conditions: ciclesonide 2700 μg twice daily / 3712.5 μg once daily morning / 3712.5 μg once daily evening, inhalation, nozzle B; after 14 days
Description: The horses are challenged by exposure to moldy hay to throughout the whole study.

[7] = Plasma level of ciclesonide and C21-C21-desisobutyrylciclesonide (HPLC-MS/MS), 2nd ciclesonide study; conditions: for concentration at 0 min / concentration at 10 min / concentration at 30 min / concentration at 1 h / concentration at 2 h / concentration at 4 h: horse, plasma, inhaled
[8] = 450 μg ciclesonide/horse twice daily 14 days per inhalation (nozzle A), 1st study, D 0
[9] = 450 μg ciclesonide/horse twice daily 14 days per inhalation (nozzle A), 1st study, D 14
[10] = 450 μg ciclesonide/horse twice daily 14 days per inhalation (nozzle A), 1st study, D 21
[11] = 900 μg ciclesonide/horse twice daily 14 days per inhalation (nozzle A), 1st study, D 0
[12] = 900 μg ciclesonide/horse twice daily 14 days per inhalation (nozzle A), 1st study, D 14
[13] = 900 μg ciclesonide/horse twice daily 14 days per inhalation (nozzle A), 1st study, D 21
[14] = 1687.5 μg ciclesonide/horse twice daily 14 days per inhalation (nozzle B), 2nd study, D 0
[15] = 1687.5 μg ciclesonide/horse twice daily 14 days per inhalation (nozzle B), 2nd study, D 14
[16] = 1687.5 μg ciclesonide/horse twice daily 14 days per inhalation (nozzle B), 2nd study, D 21
[17] = 1800 μg ciclesonide/horse twice daily 14 days per inhalation (nozzle A), 1st study, D 0
[18] = 1800 μg ciclesonide/horse twice daily 14 days per inhalation (nozzle A), 1st study, D 14
[19] = 1800 μg ciclesonide/horse twice daily 14 days per inhalation (nozzle A), 1st study, D 21
[20] = 2700 μg ciclesonide A (nozzle A)/horse twice daily 14 days per inhalation, 2nd study, D 0
[21] = 2700 μg ciclesonide A (nozzle A)/horse twice daily 14 days per inhalation, 2nd study, D 14
[22] = 2700 μg ciclesonide A (nozzle A)/horse twice daily 14 days per inhalation, 2nd study, D 21
[23] = 2700 μg ciclesonide B (nozzle B)/horse twice daily 14 days per inhalation, 2nd study, D 0
[24] = 2700 μg ciclesonide B (nozzle B)/horse twice daily 14 days per inhalation, 2nd study, D 14
[25] = 2700 μg ciclesonide B (nozzle B)/horse twice daily 14 days per inhalation, 2nd study, D 21
[26] = 1st ciclesonide study, after administration of ciclesonide 450/900/1800 μg twice daily
[27] = 2nd ciclesonide study, after administration of ciclesonide 1687.5/2700 μg twice daily
[28] = 1687.5 μg/horse, Ciclesonide concentration (plasma), ciclesonide 1687.5 μg (nozzle B) twice daily per inhalation, day 1
[29] = 1687.5 μg/horse, Ciclesonide concentration (plasma), ciclesonide 1687.5 μg (nozzle B) twice daily per inhalation, day 11
[30] = 2700 μg/horse, Ciclesonide concentration (plasma), ciclesonide 2700 μg A (nozzle A) twice daily per inhalation, day 1
[31] = 2700 μg/horse, Ciclesonide concentration (plasma), ciclesonide 2700 μg A (nozzle A) twice daily per inhalation, day 11
[32] = 2700 μg/horse, Ciclesonide concentration (plasma), ciclesonide 2700 μg B (nozzle B) twice daily per inhalation, day 1
[33] = 2700 μg/horse, Ciclesonide concentration (plasma), ciclesonide 2700 μg B (nozzle B) twice daily per inhalation, day 11

serum cortisol levels (RAO horses [2]): no significant reduction | serum cortisol levels (RAO horses [4]): no significant reduction | Lymphocytes (RAO horses [5]; [8]): 1.96e+09 L⁻¹ | Segmented neutrophils (RAO horses [5]; [8]): 4.66e+09 L⁻¹ | Lymphocytes (RAO horses [5]; [9]): 1.97e+09 L⁻¹ | Segmented neutrophils (RAO horses [5]; [9]): 4.98e+09 L⁻¹ | Lymphocytes (RAO horses [5]; [10]): 2.17e+09 L⁻¹ | Segmented neutrophils (RAO horses [5]; [10]): 5.48e+09 L⁻¹ | Lymphocytes (RAO horses [5]; [11]): 1.85e+09 L⁻¹ | Segmented neutrophils (RAO horses [5]; [11]): 5.24e+09 L⁻¹ | Lymphocytes (RAO horses [5]; [12]): 2.03e+09 L⁻¹ | Segmented neutrophils (RAO horses [5]; [12]): 4.43e+09 L⁻¹ | Lymphocytes (RAO horses [5]; [13]): 1.94e+09 L⁻¹ | Segmented neutrophils (RAO horses [5]; [13]): 4.91e+09 L⁻¹ | Lymphocytes (RAO horses [5]; [14]): 1.93e+09 L⁻¹ | Segmented neutrophils (RAO horses [5]; [14]): 4.51e+09 L⁻¹ | Lymphocytes (RAO horses [5]; [15]): 1.94e+09 L⁻¹ | Segmented neutrophils (RAO horses [5]; [15]): 5.22e+09 L⁻¹ | Lymphocytes (RAO horses [5]; [16]): 2.04e+09 L⁻¹ | Segmented neutrophils (RAO horses [5]; [16]): 4.55e+09 L⁻¹ | Lymphocytes (RAO horses [5]; [17]): 1.95e+09 L⁻¹ | Segmented neutrophils (RAO horses [5]; [17]): 4.6e+09 L⁻¹ | Lymphocytes (RAO horses [5]; [18]): 1.96e+09 L⁻¹ | Segmented neutrophils (RAO horses [5]; [18]): 5.41e+09 L⁻¹ | Lymphocytes (RAO horses [5]; [19]): 2.06e+09 L⁻¹ | Segmented neutrophils (RAO horses [5]; [19]): 4.93e+09 L⁻¹ | Lymphocytes (RAO horses [5]; [20]): 2.04e+09 L⁻¹ | Segmented neutrophils (RAO horses [5]; [20]): 4.91e+09 L⁻¹ | Lymphocytes (RAO horses [5]; [21]): 2.14e+09 L⁻¹ | Segmented neutrophils (RAO horses [5]; [21]): 4.85e+09 L⁻¹ | Lymphocytes (RAO horses [5]; [22]): 2.01e+09 L⁻¹ | Segmented neutrophils (RAO horses [5]; [22]): 4.41e+09 L⁻¹ | Lymphocytes (RAO horses [5]; [23]): 1.8e+09 L⁻¹ | Segmented neutrophils (RAO horses [5]; [23]): 4.23e+09 L⁻¹ | Lymphocytes (RAO horses [5]; [24]): 1.74e+09 L⁻¹ | Segmented neutrophils (RAO horses [5]; [24]): 4.75e+09 L⁻¹ | Lymphocytes (RAO horses [5]; [25]): 2.01e+09 L⁻¹ | Segmented neutrophils (RAO horses [5]; [25]): 4.84e+09 L⁻¹ | counts of lymphocytes (RAO horses [5]; [26]): no change | counts of segmented neutrophils (RAO horses [5]; [26]): no or minor increase | counts of lymphocytes (RAO horses [5]; [27]): no change | counts of segmented neutrophils (RAO horses [5]; [27]): no or minor increase | alteration in the immune system measured by neutrophilia and lymphopenia (RAO horses [5]; treatment for two weeks with different dose levels of ciclesonide): no alteration is observed | Ciclesonide concentration (plasma) ([7]; ciclesonide 1687.5 μg (nozzle B) twice daily per inhalation, day 11, 2 h): <0.500 nmol/L | Ciclesonide concentration (plasma) ([7]; ciclesonide 1687.5 μg (nozzle B) twice daily per inhalation, day 11, 4 h): <0.500 nmol/L | concentration at 0 min [7, 28]: < 0.5 nM | concentration at 10 min [7, 28]: 0.87 nM | concentration at 30 min [7, 28]: < 0.5 nM | concentration at 1 h ([7]; 1687.5 μg/horse, Ciclesonide concentration (plasma), ciclesonide 1687.5 μg (nozzle B) twice daily per inhalation, day 1, 1 h): < 0.5 nM | concentration at 2 h ([7]; 1687.5 μg/horse, Ciclesonide concentration (plasma), ciclesonide 1687.5 μg (nozzle B) twice daily per inhalation, day 1, 2 h): < 0.5 nM | concentration at 4 h ([7]; 1687.5 μg/horse, Ciclesonide concentration (plasma), ciclesonide 1687.5 μg (nozzle B) twice daily per inhalation, day 1, 4 h): < 0.5 nM | concentration at 0 min [7, 29]: < 0.5 nM | concentration at 10 min [7, 29]: 0.97 nM | concentration at 30 min [7, 29]: < 0.5 nM | concentration at 1 h ([7]; 1687.5 μg/horse, Ciclesonide concentration (plasma), ciclesonide 1687.5 μg (nozzle B) twice daily per inhalation, day 11, 1 h): < 0.5 nM | concentration at 0 min [7, 30]: < 0.5 nM | concentration at 10 min [7, 30]: 1.19 nM | concentration at 30 min [7, 30]: 0.51 nM | concentration at 1 h ([7]; 2700 μg/horse, Ciclesonide concentration (plasma), ciclesonide 2700 μg A (nozzle A) twice daily per inhalation, day 1, 1 h): < 0.5 nM | concentration at 2 h ([7]; 2700 μg/horse, Ciclesonide concentration (plasma), ciclesonide 2700 μg A (nozzle A) twice daily per inhalation, day 1, 2 h): < 0.5 nM | concentration at 4 h ([7]; 2700 μg/horse, Ciclesonide concentration (plasma), ciclesonide 2700 μg A (nozzle A) twice daily per inhalation, day 1, 4 h): < 0.5 nM | concentration at 0 min [7, 31]: < 0.5 nM | concentration at 10 min [7, 31]: 1.02 nM | concentration at 30 min [7, 31]: 0.63 nM | concentration at 1 h ([7]; 2700 μg/horse, Ciclesonide concentration (plasma), ciclesonide 2700 μg A (nozzle A) twice daily per inhalation, day 11, 1 h): < 0.5 nM | concentration at 2 h ([7]; 2700 μg/horse, Ciclesonide concentration (plasma), ciclesonide 2700 μg A (nozzle A) twice daily per inhalation, day 11, 2 h): < 0.5 nM | concentration at 4 h ([7]; 2700 μg/horse, Ciclesonide concentration (plasma), ciclesonide 2700 μg A (nozzle A) twice daily per inhalation, day 11, 4 h): < 0.5 nM | concentration at 0 min [7, 32]: < 0.5 nM | concentration at 10 min [7, 32]: 1.16 nM | concentration at 30 min [7, 32]: 0.72 nM | concentration at 1 h ([7]; 2700 μg/horse, Ciclesonide concentration (plasma), ciclesonide 2700 μg B (nozzle B) twice daily per inhalation, day 1, 1 h): < 0.5 nM | concentration at 2 h ([7]; 2700 μg/horse, Ciclesonide concentration (plasma), ciclesonide 2700 μg B (nozzle B) twice daily per inhalation, day 1, 2 h): < 0.5 nM | concentration at 4 h ([7]; 2700 μg/horse, Ciclesonide concentration (plasma), ciclesonide 2700 μg B (nozzle B) twice daily per inhalation, day 1, 4 h): < 0.5 nM | concentration at 0 min [7, 33]: < 0.5 nM | concentration at 10 min [7, 33]: 1.38 nM | concentration at 30 min [7, 33]: 0.63 nM | concentration at 1 h ([7]; 2700 μg/horse, Ciclesonide concentration (plasma), ciclesonide 2700 μg B (nozzle B) twice daily per inhalation, day 11, 1 h): < 0.5 nM | concentration at 2 h ([7]; 2700 μg/horse, Ciclesonide concentration (plasma), ciclesonide 2700 μg B (nozzle B) twice daily per inhalation, day 11, 2 h): < 0.5 nM | concentration at 4 h ([7]; 2700 μg/horse, Ciclesonide concentration (plasma), ciclesonide 2700 μg B (nozzle B) twice daily per inhalation, day 11, 4 h): < 0.5 nM | concentration at 1 h ([7]; concentration of ciclesonide in plasma, samples taken 1 h after drug administration, below lower limit of quantification): < 0.5 nM | conversion of the prodrug into the effective molecule C21-C21-desisobutyrylciclesonide ([7]; in horses (example 5)): can be converted
SMILES: CC(C)C(=O)OCC(=O)[C@@]12O[C@H](C3CCCCC3)O[C@@H]1C[C@H]1[C@@H]3CCC4=CC(=O)C=C[C@]4(C)[C@H]3[C@@H](O)C[C@@]12C [ciclesonide, (11β,16α)-16,17-[[(R)-Cyclohexylmethylene]bis(oxy)]-11-hydroxy-21-(2-methyl-1-oxopropoxy)pregna-1,4-diene-3,20-dione]
ΔPL and EL compared to pretreatment values (RAO horses [1]; ciclesonide 1800 μg/horse ex RESPIMAT twice daily per inhalation, p=0.0005 and p=0.0004): statistically significant reduction | ΔPL and EL, difference to dexamethasone group (RAO horses [1]; ciclesonide 1800 μg/horse ex RESPIMAT twice daily): no significant difference | all lung function variables (ΔPL, RL, EL) compared to pretreatment values (RAO horses [3]; all ciclesonide groups (1687.5 μg nozzle B/2700 μg nozzle A/2700 μg nozzle B twice daily), after 14 days, p=0.0009 to p<0.0001): significantly reduced | lung function variables, difference to dexamethasone group (RAO horses [3]; all ciclesonide groups (1687.5/2700 A/2700 B μg twice daily), after 7 or 14 days): no significant difference | weighted clinical score compared to pretreatment values (RAO horses [3]; all three ciclesonide groups (1687.5/2700 A/2700 B μg twice daily), after 14 days, p=0.0001 to p<0.0001): significantly reduced | weighted clinical score, difference to dexamethasone group (RAO horses [3]; ciclesonide treatment groups (1687.5/2700 A/2700 B μg twice daily), after 14 days): no significant difference | lung function variables (ΔPL, RL, EL) compared to pretreatment values and to placebo group (RAO horses [6]): significantly reduced
